Measured values as given in patent publication US20250382250A1, “STILBENE DERIVATIVE AS AHR AGONIST AND USE THEREOF” (NANJING GRITPHARMACO., LTD., priority 2022, published 2025).
Marks after values point to notes of the source that are not given here.

Legend:
TNFa = assay: Regulatory effect on cytokine secretion in PHA-stimulated PBMCs: TNFa; assay type: cell-based; conditions: for TNFa: PBMCs, 15 μg/mL PHA, 24 h (PHA group 3649.21)
Description: (§1) • (1) Cells: […]; • (2) Cell plating and treatment: After the PBMCs were taken out from the liquid nitrogen tank and thawed, 80 μL of culture medium was added to a 96-well plate, and the cells were added at 200,000 cells/well. The culture media containing 2 μM or 0.2 μM compound 2 #, compound 6 #, or reference 1 # were added to the 96-well plate at 80 μL, at a final drug concentration of 1 μM or 0.1 μM per well. The plate was let stand for 1 h for pretreatment. After the pretreatment, the drug-containing medium was discarded, and 1 μM or 0.1 μM solution containing 15 μg/mL PHA (phytohemaggluyinin) was added at 80 μL/well. After 24 h of stimulation, the content of cytokines in the culture medium was detected. • Blank control group: The cells were treated with a normal culture medium with no drugs; • PHA group: A culture medium containing 15 μg/mL PHA but no compounds of the present disclosure was added at 80 μL/well.

DSS-induced colitis = DSS-induced colitis mouse model; assay type: in vivo, C57BL/6 mice; conditions: 10 mg/kg intragastric, DSS 2.5% 8 days; for effect on colon length: day 9
Description: • (1) Animals: 40 C57BL/6 mice, male, aged 8 weeks, 22-24 g • (2) Materials: […] Biomedicals, USA, Cat. No. […] Tween 80; Wahaha purified water • (3) Procedures: […] The solution was inspected daily and replaced with fresh DSS solution when necessary. On day one after modeling, the treatment was given. […] On day 9, the mice were sacrificed, and the blood and colon were collected. The colon length, occult blood in the cecal contents, and other conditions were also recorded. Test compound formulation: 1.00 mg of compound powder was dissolved in 20 μL of DMSO completely. Then, 20 μL of Tween 80 was added, and the mixture was well mixed. 0.96 mL of Wahaha purified water was added, and the mixture was well mixed to give a 1 mg/mL solution, which was administered at a dose of 0.1 mL/10 g (body weight). Solvent: 20 μL of DMSO, 20 μL of Tween 80, and 0.96 mL of Wahaha purified water were mixed well (used in the modeling group).

AhR = biological target: T1, AhR (Homo sapiens, UniProt P35869); assay: AhR agonism luciferase reporter gene assay in transfected HepG2 cells; assay type: cell-based; conditions: 16 h, ratio of treatment group to blank
T1 construct: expressed in transfected cells; host or cells: HepG2
T1 sequence (P35869 11-848): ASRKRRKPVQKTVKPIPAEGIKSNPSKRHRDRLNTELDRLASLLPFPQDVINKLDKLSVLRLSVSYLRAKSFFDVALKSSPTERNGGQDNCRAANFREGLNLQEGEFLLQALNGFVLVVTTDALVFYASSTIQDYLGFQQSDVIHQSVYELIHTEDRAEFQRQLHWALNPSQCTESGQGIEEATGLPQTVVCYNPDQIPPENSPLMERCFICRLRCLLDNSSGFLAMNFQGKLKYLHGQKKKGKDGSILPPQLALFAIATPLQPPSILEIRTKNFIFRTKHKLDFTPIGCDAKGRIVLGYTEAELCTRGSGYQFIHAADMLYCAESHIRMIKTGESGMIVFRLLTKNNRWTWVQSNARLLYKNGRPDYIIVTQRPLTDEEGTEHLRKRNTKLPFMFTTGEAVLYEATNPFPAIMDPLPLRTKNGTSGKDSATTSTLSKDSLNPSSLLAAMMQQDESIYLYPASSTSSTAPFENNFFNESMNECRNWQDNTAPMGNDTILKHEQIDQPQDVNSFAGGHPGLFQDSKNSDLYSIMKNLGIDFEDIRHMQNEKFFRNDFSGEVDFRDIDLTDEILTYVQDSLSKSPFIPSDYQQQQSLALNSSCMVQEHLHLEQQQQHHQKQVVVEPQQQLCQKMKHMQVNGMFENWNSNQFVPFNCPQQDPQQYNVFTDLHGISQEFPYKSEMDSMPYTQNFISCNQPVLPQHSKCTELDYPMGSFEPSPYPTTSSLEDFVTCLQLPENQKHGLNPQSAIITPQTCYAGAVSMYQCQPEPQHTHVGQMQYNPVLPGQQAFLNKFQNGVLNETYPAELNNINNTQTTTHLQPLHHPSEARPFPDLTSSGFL
Description: When the cell confluence reached 80%, the culture medium was replaced with a fresh one, and the transfection working solution was added for transfection overnight. The formula of the working solution is as follows: 1 mL of Opti-MEM+7.5 μg of pCMV-AHR+7.5 μg of pTK-3×DRE-Luc+30 μL of lipo6000. • (2) Cell plating: The transfected cells were digested, prepared into a cell suspension at a concentration of 3×10^5 cells/mL, and then plated on a 96-well plate at 100 µL/well for adherent culture overnight. • (3) Formulation
The prepared drug-containing culture media and a blank culture medium were added to the 96-well plate described above at 100 μL/well.

IL4 = assay: Regulatory effect on cytokine secretion in PHA-stimulated PBMCs: IL4; assay type: cell-based; conditions: for IL4: PBMCs, 15 μg/mL PHA, 24 h (PHA group 9.42)
Description: as §1

atopic dermatitis = assay: DNFB-induced atopic dermatitis mouse model (AD Score); assay type: in vivo, BALB/C mice; design: scale not given here; conditions: DNFB mice
Description: 56 clean-grade BALB/C mice aged 6-8 weeks were subjected to 5 days of adaptive feeding and then randomized into 7 groups of 8 mice each: • A. Blank control group • B. Modeling+solvent group • C. Modeling+blank matrix group • D. Modeling+positive drug mometasone furoate group • E. Modeling+1 wt % of benvitimod group • F. […] The animal experiments were conducted in accordance with the Experimental Animal Feeding, Management and Use Guidelines of China Pharmaceutical University and in compliance with animal study ethics and regulations. As shown in the above procedures, the solvent control or DNFB was given in the morning for modeling; from day 5, the test compound ointment was administered once every afternoon at 50 mg/dose evenly on the skin surface. The specific administration method is as shown above; Specific procedures: […] Severity of atopic dermatitis was scored using the AD Score criteria The severity of the appearance of dermatitis was evaluated based on 4 indicators: A. erythema/bleeding; B. dryness; C. effusion/crusting; D. edema.

[1] = day 0, before ointment treatment (from day 5)
[2] = day 4, before ointment treatment (from day 5)
[3] = day 6, ointment 50 mg once daily from day 5 (1.2 wt % 2#/6#, 1 wt % benvitimod)
[4] = day 8, ointment 50 mg once daily from day 5 (1.2 wt % 2#/6#, 1 wt % benvitimod)
[5] = day 10, ointment 50 mg once daily from day 5 (1.2 wt % 2#/6#, 1 wt % benvitimod)

Row | Structure (SMILES) | TNFa (TNFa; 0.1 μM) [pg/mL] | inhibitory effect on TNFa relative to reference 1# (benvitimod) (TNFa; 1 μM) [folds] | TNFa (TNFa; 1 μM) [pg/mL] | disease activity indicator (body weight change and hematochezia) (DSS-induced colitis) | effect on colon length (DSS-induced colitis) | AhR receptor agonistic fold (AhR; drug concentration 0.1 μM) [fold] | AhR receptor agonistic fold (AhR; drug concentration 1 μM) [fold] | IL4 (IL4; 0.1 μM) [pg/mL] | inhibitory effect on IL4 relative to reference 1# (benvitimod) (IL4; 1 μM) [folds] | IL4 (IL4; 1 μM) [pg/mL] | Back AD score (atopic dermatitis; [1]) | Back AD score (atopic dermatitis; [2]) | Back AD score (atopic dermatitis; [3]) | Back AD score (atopic dermatitis; [4]) | Back AD score (atopic dermatitis; [5])
1 | Oc1cc(/C=C/c2ccc(F)cc2)cc(O)c1C1CCCCC1 [Compound 6, (E)-2-cyclohexyl-5-(4-fluorostyryl)-1,3-benzenediol] | 1433.29 | 2 | 810.71 | a more significant effect | superior to that in the reference 1 #benvitimod group | 6.6 ± 0.1 | 25.9 ± 0.4 | 4.62 | 2 | 2.75 | 0.00 ± 0.00 | 3.50 ± 0.35 | 5.56 ± 1.45 | 6.69 ± 1.64**^a | 5.44 ± 1.13**^aab
2 | CC(C)c1c(O)cc(/C=C/c2ccccc2)cc1O [Reference 1#, Benvitimod, reference compound] | 2559.02 |  | 2426.93 | good therapeutic effects | the conditions were improved | 3.2 ± 1.2 | 10.6 ± 1.0 | 9.30 |  | 5.63 | 0.00 ± 0.00 | 3.63 ± 0.78 | 7.44 ± 1.07 | 7.19 ± 1.14 | 6.81 ± 1.00
